Earlier results, collected in patent US6331653A, “Process for producing 3,4-dihydroxy-3-cyclobutene-1,2-dione” (priority 1997, dated 2001).

Conditions: in an aqueous solution at 25° C.; amine compound

Row | pKa value | Compound
1 | 10.1 | CN1CCCCC1 [N-methylpiperidine]
2 | 5.9 | Cc1ccccn1 [α-picoline]
3 | 10.5 | CN1CCCC1 [N-methylpyrrolidine]

Row | Compound | pKa value
4 | c1ccc2ncccc2c1 [Quinoline] | 4.8

Same assay, conditions: water

Row | Compound | pKa value
5 | CCCCN(CCCC)CCCC [tributylamine] | 9.9
6 | CN(C)c1ccccc1 [N,N-dimethylaniline] | 5.2
7 | CCN(CC)c1ccccc1 [N,N-diethylaniline] | 6.6
